Results from US20240252586A1, “ENGINEERED ANTIMICROBIAL PEPTIDES AND USAGE THEREOF” (priority 2021, published 2024).
“And” between values parts separate entries of the source, which are not always exact repeats. Identical values can stand only once. Like-named read-outs stand apart in the source and are kept apart here. Where no end group is shown, it is not given here.

How the values were obtained:
P. aeruginosa CDC 0509 = system: P. aeruginosa CDC 0509
Protocol: (§1) SEQ ID NO: 1 stocks were made at 5.12 mg/mL in water adjusted to pH of 5.0 with 1% glacial acetic acid.
(§2) The test organisms (Table 7) consisted of clinical isolates from the Micromyx (MMX) repository, a reference isolate from the American Type Culture Collection (ATCC, Manassas, VA) and the Centers for Disease Control (CDC, Atlanta GA). Upon initial receipt, the isolates were streaked under suitable conditions onto agar medium appropriate to each organism. The organisms were incubated for 18-24 hr at 35° C. in ambient atmosphere. Colonies harvested from these growth plates were resuspended in the appropriate medium containing a cryoprotectant. Aliquots of each suspension were then stored frozen at −80° C. Prior to testing, all organisms were cultured onto trypticase soy agar containing 5% sheep blood. The agar plates were incubated as described above.
(§3) The Test media used for MIC and FIC were testing were cation-adjusted Mueller-Hinton broth (CAMHB) and Roswell Park Memorial Institute (RPMI-1640), buffered with 3-(N-morpholino)propanesulfonic acid (MOPS). Each test media was supplemented with 0.002% Tween-80 (P-80) prior to testing.
(§4) MIC assay plates were prepared for broth microdilution in accordance with guidelines from the Clinical and Laboratory Standards Institute (CLSI); automated liquid handlers (Biomek 3000 and Biomek FX) and multi-channel pipettes were used to conduct serial dilutions and liquid transfers. MIC assay plates were prepared using a 96-well, deep-well microdilution plate that mimicked the layout of the daughter plates.
(§5) For the mother plate, wells across the standard 96-well microdilution plate were filled with 150 μL of sterile saline 0.002% P-80 in columns 2 through 12. […] The Biomek 300 was used to make eleven 2-fold serial dilutions horizontally across each row of the plate from columns 2 through 11. The Biomek FX was then used to transfer 5 μL of the SEQ ID NO: 1 and saline 0.002% P-80 to the daughter plates.
(§6) A standardized inoculum of each organism was prepared per CLSI methods. Suspensions were prepared to equal a 0.5 McFarland standard followed by a 1:10 dilution into test medium. The inocula were dispensed into sterile reservoirs divided by length and the Biomek 3000 was used to inoculate the plates. Daughter plates were placed on the Biomek 3000 work surface in reverse orientation so that inoculation took place from low to high drug concentration. The Biomek 3000 delivered 10 μL of the diluted suspension into each well. These inoculations yielded a final cell concentration in the daughter plates of approximately 5×10^5 CFU/mL in each well. Plates were incubated at 35° C. for 16-20 hr. The microplates were viewed from the bottom using a plate viewer and the MIC was recorded as the lowest concentration of drug that inhibited visible growth of the organism.

S. aureus NRS 384 = system: S. aureus NRS 384
Protocol: as §1, §2, §3, §4, §5, §6

S. aureus ATCC 29213 = system: S. aureus ATCC 29213
Protocol: as §1, §2, §3, §4, §5, §6

S. epidermidis MMX 5129 = system: S. epidermidis MMX 5129
Protocol: as §1, §2, §3, §4, §5, §6

E. Coli ATCC BAA-2469 = system: E. Coli ATCC BAA-2469
Protocol: as §1, §2, §3, §4, §5, §6

S. epidermidis MMX 8655 = system: S. epidermidis MMX 8655
Protocol: as §1, §2, §3, §4, §5, §6

S. aureus NRS 382 = system: S. aureus NRS 382
Protocol: as §1, §2, §3, §4, §5, §6

P. aeruginosa ATCC 27853 = system: P. aeruginosa ATCC 27853
Protocol: as §1, §2, §3, §4, §5, §6

E. Coli CDC 0451 = system: E. Coli CDC 0451
Protocol: as §1, §2, §3, §4, §5, §6

P. aeruginosa CDC 0515 = system: P. aeruginosa CDC 0515
Protocol: as §1, §2, §3, §4, §5, §6

S. epidermidis MMX 3628 = system: S. epidermidis MMX 3628
Protocol: as §1, §2, §3, §4, §5, §6

E. Coli ATCC 25922 = system: E. Coli ATCC 25922
Protocol: as §1, §2, §3, §4, §5, §6

[1] = system: Staphylococcus aureus ATCC 29213; experiment: Broth microdilution MIC, QC of stock (Study 2); assay type: cell-based
Protocol: (§7) The activity of SEQ ID NO: 1 stocks against relevant ATCC reference isolates was determined by broth microdilution for QC purposes in accordance with guidelines described by the Clinical and Laboratory Standards Institute.
(§8) The wells in columns 2-12 in a standard 96-well microdilution plate were filled with 150 μL of 0.002% P-80 PBS. […] Serial two-fold dilutions were conducted through column 11. The wells of column 12 contained no drug and served as the organism growth control well. This would become the “mother” plate from which “daughter” or test plates would be prepared. The daughter plates were loaded with 190 μL of CAMHB+0.002% polysorbate-80 (P-80), or RPMI with 0.002% P-80 by hand-pipetting.
(§9) A standardized inoculum of each evaluated organism was prepared per CLSI methods. Growth from agar plates was used to prepare a 0.5 McFarland suspension in saline for each organism. The 0.5 McFarland suspensions were diluted 1:20 in saline, and the diluted suspensions were used as the test inocula. The inocula were then transferred to daughter plates by delivering 10 μL of standardized inoculum into each well of the daughter plate, resulting in a final concentration ranging between 2.5×10^5 to 5×10^5 CFU/mL per well.
(§10) Plates were stacked and covered with a lid on the top plate, placed into plastic bags, and incubated at 35° C. for 16-20 hr in ambient air. Growth in the microplates was viewed from the bottom using a plate viewer. […] The MIC was read and recorded as the lowest concentration of drug (SEQ ID NO: 1) that inhibited visible growth of the organism.

[2] = system: Pseudomonas aeruginosa ATCC 27853; experiment: Broth microdilution MIC, QC of stock (Study 2); assay type: cell-based
Protocol: as §7, §8, §9, §10

[3] = system: Escherichia coli ATCC 25922; experiment: Broth microdilution MIC, QC of stock (Study 2); assay type: cell-based
Protocol: as §7, §8, §9, §10

How did the MIC (P. aeruginosa CDC 0509; CAMHB) turn out when RRWVRRVRRVWRRVVRVVRRWVRR [SEQ ID NO: 1] was run?
The MIC was 8 µg/mL.

What about the MIC (P. aeruginosa CDC 0509; RPMI) of the same sequence?
The MIC was 4 µg/mL.

What about the MIC (P. aeruginosa CDC 0509; stated in FIG. 5 legends (time-kill), printed P. Aeruginosa CDC 0451) of the same sequence?
Its MIC is 16 µg/mL.

And the MIC (S. aureus NRS 384; CAMHB)?
The MIC was 4 µg/mL.

And the MIC (S. aureus NRS 384; RPMI)?
Its MIC is 0.5 µg/mL.

And the MIC (S. aureus ATCC 29213; CAMHB)?
Its MIC is 4 µg/mL.

And the MIC (S. aureus ATCC 29213; RPMI)?
Its MIC is 0.5 µg/mL.

What about the MIC (S. epidermidis MMX 5129; CAMHB) of the same sequence?
Its MIC is 1 µg/mL.

What about the MIC (S. epidermidis MMX 5129; RPMI) of the same sequence?
Its MIC is 0.12 µg/mL.

And the MIC (E. Coli ATCC BAA-2469; CAMHB)?
Its MIC is 4 µg/mL.

What about the MIC (E. Coli ATCC BAA-2469; RPMI) of the same sequence?
The MIC was 0.5 µg/mL.

What about the MIC (S. epidermidis MMX 8655; CAMHB) of the same sequence?
Its MIC is 0.5 µg/mL.

And the MIC (S. epidermidis MMX 8655; RPMI)?
The MIC was 0.12 µg/mL.

And the MIC (S. epidermidis MMX 8655; stated in FIG. 3 legends (time-kill))?
Its MIC is 1 µg/mL.

What about the MIC (S. aureus NRS 382; RPMI) of the same sequence?
Its MIC is 0.5 µg/mL.

What about the MIC (S. aureus NRS 382; stated in FIG. 2 legends (time-kill), printed S. aureus NRS 382) of the same sequence?
The MIC was 8 µg/mL.

What about the MIC (P. aeruginosa ATCC 27853; CAMHB) of the same sequence?
The MIC was 8 µg/mL.

And the MIC (P. aeruginosa ATCC 27853; RPMI)?
The MIC was 2 µg/mL.

What about the MIC (E. Coli CDC 0451; CAMHB) of the same sequence?
Its MIC is 1 µg/mL and 2 µg/mL.

What about the MIC (E. Coli CDC 0451; RPMI) of the same sequence?
Its MIC is 0.5 µg/mL.

What about the MIC (P. aeruginosa CDC 0515; CAMHB) of the same sequence?
Its MIC is 8 µg/mL.

What about the MIC (P. aeruginosa CDC 0515; RPMI) of the same sequence?
Its MIC is 1 µg/mL.

And the MIC (S. epidermidis MMX 3628; CAMHB)?
The MIC was 0.25 µg/mL.

And the MIC (S. epidermidis MMX 3628; RPMI)?
The MIC was 0.12 µg/mL.

What about the MIC (E. Coli ATCC 25922; CAMHB) of the same sequence?
Its MIC is 4 µg/mL.

And the MIC (E. Coli ATCC 25922; RPMI)?
The MIC was 0.5 µg/mL.

And the MIC ([1]; CAMHB + 0.002% P-80)?
Its MIC is 4 µg/mL.

And the MIC ([1]; RPMI + 0.002% P-80)?
The MIC was 0.12 µg/mL.

And the MIC ([2]; CAMHB + 0.002% P-80)?
The MIC was 4 µg/mL.

And the MIC ([2]; RPMI + 0.002% P-80)?
Its MIC is 0.5 µg/mL.

And the MIC ([3]; CAMHB + 0.002% P-80)?
Its MIC is 2 µg/mL.

What about the MIC ([3]; RPMI + 0.002% P-80) of the same sequence?
Its MIC is 0.5 µg/mL.
